Experimental data published in patent US9783859B2, “Method of screening and quantifying various enzymatic activities using artificial genetic circuits” (KOREA RESEARCH INSTITUTE OF BIOSCIENCE AND BIOTECHNOLOGY, priority 2009, dated 2017).

Tests used:
[1] = tested on: artificial genetic circuit pGESS-EGFP (I) (dmpR); test: signals of artificial genetic circuit for various phenols, FACS fluorescence; type: cell-based, E. coli DH5α; conditions: 100 uM of each phenol derivative, 30° C. 18 hours
Source text: Whether the artificial genetic circuit senses the following phenol derivatives and the sensitivities of the genetic circuit to the phenol derivatives were examined: o-nitrophenol, m-nitrophenol, p-nitrophenol, o-chlorophenol, m-chlorophenol, p-chlorophenol, salicylic acid, 2-aminophenol, 2-methoxyphenol, o-cresol, m-cresol, p-cresol, catechol, resorcinol, 2-fluorophenol, 2-iodophenol, 2,4-dimethylphenol, 2,5-dimethylphenol, 3,4-dimethylphenol, 2,3-dimethylphenol, 3,5-dimethylphenol, 2,4-dichlorophenol, 2,5-dichlorophenol, 2,3-dichlorophenol, 2,6-dichlorophenol, 3,4-dichlorophenol, 3,5-dichlorophenol, 2,4-dinitrophenol, 3-methylcatechol, 2-ethylphenol, 3-ethylphenol, and benzene. Specifically, a single colony of E. coli DH5α containing pGESS-EGFP (I) was inoculated into LB liquid medium containing 50 μg/ml of ampicillin and was cultured overnight at 37° C. The culture was inoculated into LB medium containing 50 μg/ml of ampicillin to a concentration of 1% (v/v) and was cultured at 37° C. for about 8 hours until the OD600 of the cells reached 3. Then, 100 uM of each of the phenol derivatives was added to the culture which was then cultured with shaking at 30° C. for 18 hours. 100 μl of each culture was extracted, and the distribution of fluorescence in individual cells was examined by FACS. Each of the samples was tested three times, and the measurements were averaged.

[2] = tested on: artificial genetic circuit pGESS-Cm (II); test: response of chloramphenicol resistance reporter circuit to phenol derivatives, OD600; type: cell-based, E. coli EPI300; conditions: 100 μM of each phenol derivative, 30 μg/ml chloramphenicol, 37° C. 8 hours
Experimental: In the case of the artificial genetic circuit comprising chloramphenicol resistance gene as the reporter, whether the genetic circuit responds to the substrates was examined. […] The culture was inoculated into 50 μg/ml ampicillin-containing LB liquid medium to a concentration of 1% (v/v), and then 30 μg/ml of chloramphenicol and 100 μM of each of the phenol derivatives were added thereto and the cells were cultured with shaking at 37° C. for 8 hours. Then, the OD600 of the cells was measured, thereby examining whether the genetic circuit responded to the phenol derivatives. As a control group, cells containing 100 μM of phenol without containing chloramphenicol were used.

[3] = tested on: artificial genetic circuit pGESS-EGFP (I) (dmpR); type: cell-based, E. coli DH5α; conditions: 0.1-1000 μM tested, overnight at 30° C., LB medium
Experimental: The signals of the artificial genetic circuit for phenolic compounds were quantitatively analyzed. Specifically, a single colony of E. coli DH5α containing pGESS-EGFP (I) was inoculated into LB liquid medium containing 50 μg/ml of ampicillin and was cultured with shaking overnight at 37° C. The culture was inoculated into LB medium containing 50 μg/ml of ampicillin to a concentration of 1% (v/v), and 0.1-1000 μM of each of phenol, o-chlorophenol, m-chlorophenol, o-nitrophenol, catechol and resorcinol was added thereto and cultured with shaking overnight at 30° C. The cells were lysed, and the supernatant was analyzed by a fluorescence spectrometer (Varian, Australia), thereby measuring the fluorescence of GFP at 510 nm.

Structure (SMILES)	response of the artificial genetic circuit (fluorescence, FACS) [1]	response of the artificial genetic circuit (chloramphenicol resistance, OD600) [2]	concentration from which fluorescence started to be sensed [3] [µM]
Oc1cccc(Cl)c1Cl [2,3-dichlorophenol]	weakly responded		
Cc1cccc(O)c1C [2,3-dimethylphenol]	weakly responded	strongly responded	
Oc1cc(Cl)ccc1Cl [2,5-dichlorophenol]	weakly responded		
Cc1ccc(C)c(O)c1 [2,5-dimethylphenol]	weakly responded		
Nc1ccccc1O [2-aminophenol]	strongly responded		
CCc1ccccc1O [2-ethylphenol]	strongly responded	strongly responded	
Oc1ccccc1F [2-fluorophenol]	strongly responded	strongly responded	
Oc1ccccc1I [2-iodophenol]	strongly responded	strongly responded	
COc1ccccc1O [2-methoxyphenol]	strongly responded	strongly responded	
Oc1ccccc1O [catechol]	strongly responded	strongly responded	10
Oc1cccc(Cl)c1 [m-chlorophenol]	weakly responded	strongly responded	1
Cc1cccc(O)c1 [m-cresol]	strongly responded	strongly responded	
O=[N+]([O-])c1cccc(O)c1 [m-nitrophenol]	weakly responded	strongly responded	
Oc1ccccc1Cl [o-chlorophenol]	strongly responded	strongly responded	≤ 0.1
Cc1ccccc1O [o-cresol]	strongly responded	strongly responded	
O=[N+]([O-])c1ccccc1O [o-nitrophenol]	strongly responded	strongly responded	10
Oc1ccc(Cl)cc1 [p-chlorophenol]	weakly responded	weakly responded to or did not respond	
Cc1ccc(O)cc1 [p-cresol]	weakly responded	weakly responded to or did not respond	
O=[N+]([O-])c1ccc(O)cc1 [p-nitrophenol]	did not respond	weakly responded to or did not respond	
Oc1cccc(O)c1 [resorcinol]			100
